Laboratory results from patent US8461338B2, “(1R, 1′R)-atracurium salts separation process” (Chemagis Ltd., priority 2007, dated 2013).

What was measured:
[1] = cited from earlier work
[2] = Stability of cisatracurium salt in different eluent mixtures (HPLC assay of isomer content over time); format: physicochemical; conditions: for % of the 1R-cis,1′R-cis isomer in the eluent composition: room temperature
Method: Table 6 illustrates how the amount of the 1R-cis,1′R-cis isomer changes at room temperature as a function of time in 3 different eluent mixtures. The (1R,1′R)-atracurium besylate isomer mixture was dissolved in the eluent and the resulting solutions were allowed to stand at room temperature for a period of 26 hours. After certain time intervals, as specified in Table 6, samples were withdrawn from each one of the 3 solutions and assayed by HPLC to determine the amount of the 1R-cis,1′R-cis isomer in the mixture.
The stability of the cisatracurium salt in the eluent mixture at 25° C. is presented in FIG. 1 whereby two plots are compared, that is, the plot describing the stability of the 1R-cis,1′R-cis isomer in the eluent mixture of 80:10:10 dichloromethane:DMSO:formic acid of the present invention (Column A in Table 6) vs. the plot of the dichloromethane:MeOH:benzenesulfonic acid eluent system, described in U.S. Pat. No. 5,556,978, example 2 (Column C in Table 6).

SMILES: COc1ccc(C[C@@H]2c3cc(OC)c(OC)cc3CC[N@+]2(C)CCC(=O)OCCCCCOC(=O)CC[N@@+]2(C)CCc3cc(OC)c(OC)cc3[C@H]2Cc2ccc(OC)c(OC)c2)cc1OC [1R-cis,1′R-cis isomer, (1R,1′R,2R,2′R)-2,2′-[1,5-pentanediylbis[oxy(3-oxo-3,1-propanediyl)]]bis[1-[(3,4-dimethoxyphenyl)methyl]-1,2,3,4-tetrahydro-6,7-dimethoxy-2-methyl-isoquinolinium dibenzenesulfonate]
- rate of loss in potency ([1]; at 25° C. (77° F.)): approximately 5 % per month
- rate of loss of potency ([1]; under refrigeration (5° C.)): approximately 5 % per year
- change of the content of the 1R-cis,1′R-cis isomer in the eluent mixture ([2]; dichloromethane:DMSO:formic acid eluent mixture, after 26 hours): remains unchanged
- decrease of the content of the 1R-cis,1′R-cis isomer in the eluent mixture ([2]; dichloromethane:methanol:benzenesulfonic acid eluent (U.S. 5,556,978, example 2), after 26 hours at room temperature): more than 3%
- % of the 1R-cis,1′R-cis isomer in the eluent composition ([2]; eluent A dichloromethane:DMSO:formic acid 80:10:10, 0 hours): 55.1%
- % of the 1R-cis,1′R-cis isomer in the eluent composition ([2]; eluent A dichloromethane:DMSO:formic acid 80:10:10, 2 hours): 55.4%
- % of the 1R-cis,1′R-cis isomer in the eluent composition ([2]; eluent A dichloromethane:DMSO:formic acid 80:10:10, 11 hours): 55.2%
- % of the 1R-cis,1′R-cis isomer in the eluent composition ([2]; eluent A dichloromethane:DMSO:formic acid 80:10:10, 12 hours): 55.1%
- % of the 1R-cis,1′R-cis isomer in the eluent composition ([2]; eluent A dichloromethane:DMSO:formic acid 80:10:10, 24 hours): 55.3%
- % of the 1R-cis,1′R-cis isomer in the eluent composition ([2]; eluent A dichloromethane:DMSO:formic acid 80:10:10, 26 hours): 55.4%
- % of the 1R-cis,1′R-cis isomer in the eluent composition ([2]; eluent B dichloromethane:DMSO:benzenesulfonic acid 90:10:0.006, 0 hours): 55.3%
- % of the 1R-cis,1′R-cis isomer in the eluent composition ([2]; eluent B dichloromethane:DMSO:benzenesulfonic acid 90:10:0.006, 2 hours): 55.3%
- % of the 1R-cis,1′R-cis isomer in the eluent composition ([2]; eluent B dichloromethane:DMSO:benzenesulfonic acid 90:10:0.006, 11 hours): 55.3%
- % of the 1R-cis,1′R-cis isomer in the eluent composition ([2]; eluent B dichloromethane:DMSO:benzenesulfonic acid 90:10:0.006, 12 hours): 55.3%
- % of the 1R-cis,1′R-cis isomer in the eluent composition ([2]; eluent B dichloromethane:DMSO:benzenesulfonic acid 90:10:0.006, 24 hours): 55.3%
- % of the 1R-cis,1′R-cis isomer in the eluent composition ([2]; eluent B dichloromethane:DMSO:benzenesulfonic acid 90:10:0.006, 26 hours): 55.2%
- % of the 1R-cis,1′R-cis isomer in the eluent composition ([2]; eluent C dichloromethane:methanol:benzenesulfonic acid 4000:500:0.5, 0 hours): 55.3%
- % of the 1R-cis,1′R-cis isomer in the eluent composition ([2]; eluent C dichloromethane:methanol:benzenesulfonic acid 4000:500:0.5, 2 hours): 54.9%
- % of the 1R-cis,1′R-cis isomer in the eluent composition ([2]; eluent C dichloromethane:methanol:benzenesulfonic acid 4000:500:0.5, 11 hours): 53.4%
- % of the 1R-cis,1′R-cis isomer in the eluent composition ([2]; eluent C dichloromethane:methanol:benzenesulfonic acid 4000:500:0.5, 12 hours): 53.7%
- % of the 1R-cis,1′R-cis isomer in the eluent composition ([2]; eluent C dichloromethane:methanol:benzenesulfonic acid 4000:500:0.5, 24 hours): 52.6%
- % of the 1R-cis,1′R-cis isomer in the eluent composition ([2]; eluent C dichloromethane:methanol:benzenesulfonic acid 4000:500:0.5, 26 hours): 52.0%
